Test results published in patent publication US8076338B2, “Kinase modulators and methods of use” (Exelixis, Inc., priority 2004, dated 2011).
pIC50: −log10 of the molar value. Read-outs that look alike come from different tables or passages of the source.

Columns and labels:
[1] = molecular target: p70S6K (Homo sapiens, UniProt P23443); test: Luciferase-coupled chemiluminescence kinase assay (ATP consumption); type: biochemical
Procedure: (§1) One measure of inhibition is Ki. […] The Ki for a compound is determined from the IC50 based on three assumptions. First, only one compound molecule binds to the enzyme and there is no cooperativity. […] Third, the enzymatic rate of the enzyme-inhibitor complex is zero. The rate data (i.e. compound concentration) are fitted to the equation: […]
(§2) Luciferase-Coupled Chemiluminescence Assay Protocol
(§3) Kinase activity is measured as the percent of ATP consumed following the kinase reaction using luciferase-luciferin-coupled chemiluminescence. Reactions were conducted in 384-well white, medium binding microtiter plates (Greiner). Kinase reactions were initiated by combining test compounds, ATP and kinase in a 20 uL volume. The reaction mixture was incubated at ambient temperature for 3 hrs. For p70S6K and/or AktK, 2.5-5 nM of the enzyme was pre-incubated with compound in 20 mM Tris pH 7.5, 10 mM MgCl2, 0.03% TX-100, and 1 mM DTT for 30 minutes at room temperature. Following the kinase reaction, a 20 μL aliquot of luciferase-luciferin mix was added and the chemiluminescence signal measured using a Victor^2 plate reader (Perkin Elmer). The luciferase-luciferin mix contained 50 mM HEPES, pH 7.8, 67 mM oxalic acid (pH 7.8), 5 (or 50) mM DTT, 0.4% Triton X-100, 0.25 mg/mL coenzyme A, 63 μM AMP, 28 μg/1 mL luciferin and 40,000 units/mL luciferase. Total ATP consumption was limited to 25-60% and the IC50 values correlate well with those determined by radiometric assays.

[2] = molecular target: AktK (Homo sapiens, UniProt P31749); test: as above; type: biochemical; details: read-out: AKT-1 IC50
Sequence of AktK (P31749 whole entry): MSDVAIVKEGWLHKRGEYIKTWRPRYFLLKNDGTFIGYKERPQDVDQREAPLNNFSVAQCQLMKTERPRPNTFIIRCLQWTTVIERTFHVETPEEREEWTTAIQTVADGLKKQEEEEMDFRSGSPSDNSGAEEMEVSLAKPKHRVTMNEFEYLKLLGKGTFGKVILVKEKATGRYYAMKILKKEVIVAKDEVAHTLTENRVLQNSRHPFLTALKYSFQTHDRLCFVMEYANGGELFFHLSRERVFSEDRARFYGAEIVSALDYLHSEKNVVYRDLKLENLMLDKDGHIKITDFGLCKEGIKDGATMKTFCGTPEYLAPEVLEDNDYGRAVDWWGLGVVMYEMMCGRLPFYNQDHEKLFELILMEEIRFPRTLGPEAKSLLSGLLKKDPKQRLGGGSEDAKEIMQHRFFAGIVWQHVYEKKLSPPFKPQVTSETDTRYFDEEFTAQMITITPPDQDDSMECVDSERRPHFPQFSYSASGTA
Procedure: as §1, §2, §3

Sequence of p70S6K (P23443 whole entry): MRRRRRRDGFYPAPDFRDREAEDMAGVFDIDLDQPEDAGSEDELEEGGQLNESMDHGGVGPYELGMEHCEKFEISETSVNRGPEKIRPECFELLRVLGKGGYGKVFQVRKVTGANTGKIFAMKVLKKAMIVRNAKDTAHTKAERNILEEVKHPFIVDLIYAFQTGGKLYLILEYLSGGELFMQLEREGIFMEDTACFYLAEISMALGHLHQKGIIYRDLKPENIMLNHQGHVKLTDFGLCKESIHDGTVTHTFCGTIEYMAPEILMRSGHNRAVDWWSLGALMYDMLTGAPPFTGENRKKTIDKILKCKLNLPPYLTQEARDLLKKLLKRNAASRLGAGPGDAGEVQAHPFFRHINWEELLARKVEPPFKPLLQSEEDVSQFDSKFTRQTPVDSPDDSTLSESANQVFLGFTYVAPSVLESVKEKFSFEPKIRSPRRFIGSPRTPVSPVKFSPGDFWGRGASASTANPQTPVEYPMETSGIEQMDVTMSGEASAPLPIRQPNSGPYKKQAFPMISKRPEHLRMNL

pIC50 ([1]; Table 1, class symbols per key) | pIC50 ([2]; Table 1, class symbols per key) | pIC50 [1] | pIC50 [2] | Compound
– | – | > 7.00 | 5.00 to 6.00 | CCN(CC)CC#Cc1n[nH]c2ncnc(N3CCN(c4cc(Cl)ccc4C)CC3)c12 [Entry 392, 3-{4-[4-(5-chloro-2-methylphenyl)piperazin-1-yl]-1H-pyrazolo[3,4-d]pyrimidin-3-yl}-N,N-diethylprop-2-yn-1-amine]
> 7.00 | 6.00 to 7.00 | – | – | CCc1n[nH]c2ncnc(N3CCN(c4cc(Cl)cc(OCCCN5CCCC5)c4C)CC3)c12 [Entry 35, 4-(4-{5-chloro-2-methyl-3-[(3-pyrrolidin-1-ylpropyl)oxy]phenyl}piperazin-1-yl)-3-ethyl-1H-pyrazolo[3,4-d]pyrimidine]
6.00 to 7.00 | ≤ 5.00 | – | – | O=[N+]([O-])c1ccc(N2CCN(c3ncnc4[nH]nc(Br)c34)CC2)cc1 [Entry 97, 3-bromo-4-[4-(4-nitrophenyl)piperazin-1-yl]-1H-pyrazolo[3,4-d]pyrimidine]
> 7.00 | > 7.00 | – | – | Cc1ccc(OCC(F)(CF)CF)cc1N1CCN(c2ncnc3[nH]nc(Br)c23)CC1 [Entry 263, 3-bromo-4-[4-(5-{[2,3-difluoro-2-(fluorometh-yl)propyl]oxy}-2-methylphenyl)piperazin-1-yl]-1H-pyrazolo[3,4-d]pyrimidine]
> 7.00 | 5.00 to 6.00 | – | – | O=C(COc1cccc(N2CCN(c3ncnc4[nH]nc(Br)c34)CC2)c1)NC1CC1 [Entry 166, 2-({3-[4-(3-bromo-1H-pyrazolo[3,4-d]pyrimidin-4-yl)piperazin-1-yl]phenyl}oxy)-N-cyclopropylacetamide]
– | – | > 7.00 | 6.00 to 7.00 | CCc1n[nH]c2ncnc(N3CCN(c4cc(Cl)cc(CCCN5CCCC5)c4C)CC3)c12 [Entry 403, 4-{4-[5-chloro-2-methyl-3-(3-pyrrolidin-1-ylpropyl)phenyl]piperazin-1-yl}-3-ethyl-1H-pyrazolo[3,4-d]pyrimidine]
– | – | > 7.00 | ≤ 5.00 | FC(F)(F)c1cccc(N2CCN(c3ncnc4[nH]ncc34)CC2)c1 [Entry 316, 4-{4-[3-(trifluoromethyl)phenyl]piperazin-1-yl}-1H-pyrazolo[3,4-d]pyrimidine]
> 7.00 | 6.00 to 7.00 | – | – | Cc1c(CCCN2CCCC2)cc(F)cc1N1CCN(c2ncnc3[nH]nc(Br)c23)CC1 [Entry 60, 3-bromo-4-{4-[5-fluoro-2-methyl-3-(3-pyrrolidin-1-ylpropyl)phenyl]piperazin-1-yl}-1H-pyrazolo[3,4-d]pyrimidine]
> 7.00 | > 7.00 | – | – | Cc1c(NCCN(C)C)cc(OCC(F)(CF)CF)cc1N1CCN(c2ncnc3[nH]nc(Br)c23)CC1 [Entry 229, N′-(3-[4-(3-bromo-1H-pyrazolo[3,4-d]pyrimidin-4-yl)piperazin-1-yl]-5-{[2,3-difluoro-2-(fluorometh-yl)propyl]oxy}-2-methylphenyl)-N,N-dimethylethane-1,2-diamine]
6.00 to 7.00 | 5.00 to 6.00 | – | – | CC(C)CCNc1c(F)c(F)nc(N2CCN(c3ncnc4[nH]nc(Br)c34)CC2)c1F [Entry 257, 2-[4-(3-bromo-1H-pyrazolo[3,4-d]pyrimidin-4-yl)piperazin-1-yl]-3,5,6-trifluoro-N-(3-methylbutyl)pyridin-4-amine]
> 7.00 | > 7.00 | – | – | N′-{3-[4-(3-bromo-1H-pyrazolo[3,4-d]pyrimidin-4-yl)piperazin-1-yl]-2-methyl-5-[(2-methyl-propyl)oxy]phenyl}-N,N-diethylethane-1,2-diamine [Entry 185]
> 7.00 | > 7.00 | – | – | Cc1c(NCCN2CCCC2)cc(C(=O)NC(C)C)cc1N1CCN(c2ncnc3[nH]nc(Br)c23)CC1 [Entry 209, 3-[4-(3-bromo-1H-pyrazolo[3,4-d]pyrimidin-4-yl)piperazin-1-yl]-4-methyl-N-(1-methylethyl)-5-[(2-pyrrolidin-1-ylethyl)amino]benzamide]
> 7.00 | 5.00 to 6.00 | – | – | Cc1c(OCCN2CCOCC2)cc(Cl)cc1N1CCN(c2ncnc3[nH]nc(C(F)(F)F)c23)CC1 [Entry 41, 4-(4-{5-chloro-2-methyl-3-[(2-morpholin-4-ylethyl)oxy]phenyl}piperazin-1-yl)-3-(trifluoromethyl)-1H-pyrazolo[3,4-d]pyrimidine]
> 7.00 | > 7.00 | – | – | Cc1ccc(-c2cccc(F)c2OCCN2CCCC2)cc1N1CCN(c2ncnc3[nH]nc(Br)c23)CC1 [Entry 282, 3-bromo-4-(4-{3′-fluoro-4-methyl-2′-[(2-pyrrolidin-1-ylethyl)oxy]biphenyl-3-yl}piperazin-1-yl)-1H-pyrazolo[3,4-d]pyrimidine]
> 7.00 | > 7.00 | – | – | Cc1c(OCCCN2CCN(C)CC2)cc(Cl)cc1N1CCN(c2ncnc3[nH]nc(Br)c23)CC1 [Entry 85, 3-bromo-4-[4-(5-chloro-2-methyl-3-{[3-(4-methylpiperazin-1-yl)propyl]oxy}phenyl)piperazin-1-yl]-1H-pyrazolo[3,4-d]pyrimidine]
– | – | > 7.00 | 6.00 to 7.00 | Cc1ccc(Cl)cc1N1CCN(c2ncnc3[nH]nc(C#CCO)c23)CC1 [Entry 393, 3-{4-[4-(5-chloro-2-methylphenyl)piperazin-1-yl]-1H-pyrazolo[3,4-d]pyrimidin-3-yl}prop-2-yn-1-ol]
> 7.00 | 6.00 to 7.00 | – | – | CCc1n[nH]c2ncnc(N3CCN(c4cc(Cl)cc(CCCN5CCN(C)CC5)c4C)CC3)c12 [Entry 62, 4-(4-{5-chloro-2-methyl-3-[3-(4-methylpiperazin-1-yl)propyl]phenyl}piperazin-1-yl)-3-ethyl-1H-pyrazolo[3,4-d]pyrimidine]
> 7.00 | > 7.00 | – | – | Cc1c(NCCN2CCCC2)cc(Br)cc1N1CCN(c2ncnc3[nH]nc(Br)c23)CC1 [Entry 271, 5-bromo-3-[4-(3-bromo-1H-pyrazolo[3,4-d]pyrimidin-4-yl)piperazin-1-yl]-2-methyl-N-(2-pyrrolidin-1-ylethyl)aniline]
> 7.00 | > 7.00 | – | – | Cc1c(NCCN2CCCC2)cc(OCCC(F)(F)F)cc1N1CCN(c2ncnc3[nH]nc(Br)c23)CC1 [Entry 284, 3-[4-(3-bromo-1H-pyrazolo[3,4-d]pyrimidin-4-yl)piperazin-1-yl]-2-methyl-N-(2-pyrrolidin-1-ylethyl)-5-[(3,3,3-trifluoropropyl)oxy]aniline]
> 7.00 | 6.00 to 7.00 | – | – | Cc1c(OCCCN2CCOCC2)cc(Cl)cc1N1CCN(c2ncnc3[nH]nc(Br)c23)CC1 [Entry 38, 3-bromo-4-(4-{5-chloro-2-methyl-3-[(3-morpholin-4-ylpropyl)oxy]phenyl}piperazin-1-yl)-1H-pyrazolo[3,4-d]pyrimidine]

Compound | pIC50 ([1]; Table 1, class symbols per key) | pIC50 ([2]; Table 1, class symbols per key) | pIC50 [1] | pIC50 [2]
Cc1c(NCCN2CCCC2)cc(OCC2CCC2)cc1N1CCN(c2ncnc3[nH]nc(Br)c23)CC1 [Entry 211, 3-[4-(3-bromo-1H-pyrazolo[3,4-d]pyrimidin-4-yl)piperazin-1-yl]-5-[(cyclobutylmethyl)oxy]-2-methyl-N-(2-pyrrolidin-1-ylethyl)aniline] | > 7.00 | > 7.00 | – | –
Cc1c(NCCN2CCCC2)cc(Cl)cc1N1CCN(c2ncnc3[nH]nc(CC(C)C)c23)CC1 [Entry 162, 5-chloro-2-methyl-3-{4-[3-(2-methylpropyl)-1H-pyrazolo[3,4-d]pyrimidin-4-yl]piperazin-1-yl}-N-(2-pyrrolidin-1-ylethyl)aniline] | > 7.00 | 6.00 to 7.00 | – | –
CCc1cc(NCCN2CCCC2)c(C)c(N2CCN(c3ncnc4[nH]nc(Br)c34)CC2)c1 [Entry 245, 3-[4-(3-bromo-1H-pyrazolo[3,4-d]pyrimidin-4-yl)piperazin-1-yl]-5-ethyl-2-methyl-N-(2-pyrrolidin-1-ylethyl)aniline] | > 7.00 | 6.00 to 7.00 | – | –
Cc1c(NCCN2CCCC2)cc(CCc2ccccc2)cc1N1CCN(c2ncnc3[nH]nc(Br)c23)CC1 [Entry 247, 3-[4-(3-bromo-1H-pyrazolo[3,4-d]pyrimidin-4-yl)piperazin-1-yl]-2-methyl-5-(2-phenylethyl)-N-(2-pyrrolidin-1-ylethyl)aniline] | > 7.00 | > 7.00 | – | –
Cc1c(NCCN2CCCC2)cc(OCC2CC2)cc1N1CCN(c2ncnc3[nH]nc(Br)c23)CC1 [Entry 205, 3-[4-(3-bromo-1H-pyrazolo[3,4-d]pyrimidin-4-yl)piperazin-1-yl]-5-[(cyclopropylmethyl)oxy]-2-methyl-N-(2-pyrrolidin-1-ylethyl)aniline] | > 7.00 | > 7.00 | – | –
CCC(CC)COc1cc(NCCN2CCCC2)c(C)c(N2CCN(c3ncnc4[nH]nc(Br)c34)CC2)c1 [Entry 207, 3-[4-(3-bromo-1H-pyrazolo[3,4-d]pyrimidin-4-yl)piperazin-1-yl]-5-[(2-ethylbutyl)oxy]-2-methyl-N-(2-pyrrolidin-1-ylethyl)aniline] | > 7.00 | > 7.00 | – | –
Cc1c(NCCN2CCCC2)cc(F)cc1N1CCN(c2ncnc3[nH]nc(C(F)(F)F)c23)CC1 [Entry 79, 5-fluoro-2-methyl-N-(2-pyrrolidin-1-ylethyl)-3-{4-[3-(trifluoromethyl)-1H-pyrazolo[3,4-d]pyrimidin-4-yl]piperazin-1-yl}aniline] | > 7.00 | 6.00 to 7.00 | – | –
